Experimental data from patent US20100055113A1, “CELLULAR RECEPTOR FOR ANTIPROLIFERATIVE FACTOR” (The University of Maryland, Baltimore, priority 2006, published 2010).
Ends that are not written are not given here. glycan = not defined here

T1: CKAP4/p63 (Homo sapiens, UniProt Q07065)
T1 construct: endogenous in cells; host or cells: explanted primary normal human bladder epithelial cells
T1 sequence (Q07065 1-602): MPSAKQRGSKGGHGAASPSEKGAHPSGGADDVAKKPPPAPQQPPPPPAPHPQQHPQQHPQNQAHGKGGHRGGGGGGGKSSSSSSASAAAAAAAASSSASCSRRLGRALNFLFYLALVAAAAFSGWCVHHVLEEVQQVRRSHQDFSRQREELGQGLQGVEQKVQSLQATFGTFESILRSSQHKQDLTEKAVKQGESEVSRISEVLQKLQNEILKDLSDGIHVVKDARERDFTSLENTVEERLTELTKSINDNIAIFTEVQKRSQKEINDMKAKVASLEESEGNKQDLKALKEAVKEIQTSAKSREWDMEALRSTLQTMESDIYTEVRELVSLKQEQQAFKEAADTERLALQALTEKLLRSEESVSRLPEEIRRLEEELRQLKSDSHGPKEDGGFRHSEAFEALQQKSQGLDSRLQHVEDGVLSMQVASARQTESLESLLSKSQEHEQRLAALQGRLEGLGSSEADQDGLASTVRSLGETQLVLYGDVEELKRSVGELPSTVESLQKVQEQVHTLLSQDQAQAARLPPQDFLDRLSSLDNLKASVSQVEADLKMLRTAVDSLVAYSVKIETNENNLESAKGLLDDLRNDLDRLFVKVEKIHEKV

T2: cytoskeleton-associated protein 4/p63 (CKAP4/p63) (human, UniProt Q07065 1-602)
T2 sequence: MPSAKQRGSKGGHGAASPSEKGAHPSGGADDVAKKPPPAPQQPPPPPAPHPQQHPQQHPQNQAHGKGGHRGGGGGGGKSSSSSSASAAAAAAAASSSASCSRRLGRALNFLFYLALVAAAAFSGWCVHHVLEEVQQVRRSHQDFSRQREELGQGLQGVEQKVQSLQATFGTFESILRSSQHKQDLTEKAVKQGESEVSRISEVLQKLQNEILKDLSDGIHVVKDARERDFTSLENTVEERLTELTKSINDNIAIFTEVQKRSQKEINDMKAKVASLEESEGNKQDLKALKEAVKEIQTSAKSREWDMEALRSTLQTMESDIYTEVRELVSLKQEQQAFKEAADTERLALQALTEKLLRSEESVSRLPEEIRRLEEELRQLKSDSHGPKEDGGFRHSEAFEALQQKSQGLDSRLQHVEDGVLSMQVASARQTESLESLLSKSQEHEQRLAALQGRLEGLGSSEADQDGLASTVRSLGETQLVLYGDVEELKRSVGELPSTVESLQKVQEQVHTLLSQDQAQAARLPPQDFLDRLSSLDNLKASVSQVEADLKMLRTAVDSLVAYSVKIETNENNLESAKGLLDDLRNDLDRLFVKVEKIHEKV

B1: synthetic APF (antiproliferative factor) (peptide)
peptide: T(glycan)VPAAVVVA
modifications: reading uncertain; also: exact glycoform not given here

How the values were obtained:
[1] = test system: normal human bladder epithelial cells; experiment: 3H-thymidine incorporation cell proliferation assay; assay type: cell-based
Procedure: (§1) Cell proliferation was measured by ^3H-thymidine incorporation into explanted normal human bladder epithelial cells, as previously described (Keay et al., 2004; Keay et al., 1996). Briefly, purified lyophilized synthetic APF was resuspended in acetonitrile/distilled water (1:1), diluted in serum-free MEM (containing only glutamine and antibiotics/antimycotics), and applied to the cells; cell controls received acetonitrile/distilled water diluted in serum-free MEM alone. Cells were then incubated at 37° C. in a 5% CO2 atmosphere for 48 hours. The cell contents harvested and methanol-fixed onto glass fiber filter paper, and the amount of radioactivity incorporated determined. Significant inhibition of 3H-thymidine incorporation was defined as a mean decrease in counts per minute of greater than 2 standard deviations from the mean of control cells for each plate.

CKAP4/p63 [2] = experiment: Western blot of CKAP4/p63 protein expression after siRNA electroporation; assay type: cell-based, human; conditions: normal bladder epithelial cells, electroporation with siRNA; FIG. 5A
Procedure: Solubilized high affinity APF-binding bladder epithelial cell proteins were prepared as described above. Solubilized bladder epithelial cell membrane proteins were prepared by rinsing cells in the culture flasks with ice cold PBS, then scraping the cells into ice-cold extraction buffer (20 mM Tris/HCL, pH 7.4, containing 50 μg/ml PMSF, 2 μg/ml aprotinin, 100 μM tosyl-lysine-chloromethyl-ketone, 1 μM pepstatin A, and 1 μg/ml diisopropylfluorophosphate). The cell slurry was then vortexed until homogeneous, and centrifuged at 4° C. for 10 minutes at 14,000 rpm. Supernatant was removed, and the pelleted membrane fraction was washed once with ice cold extraction buffer, repelleted, and proteins were solubilized using ice cold extraction buffer containing 1% Triton X-100. Solubilized total cell proteins were extracted into ice cold RIPA buffer containing 1.0% NP40, as previously described (Keay et al., 2003). Protein concentration of solubilized protein samples was measured using a Folin reagent-based protein assay kit (Bio-Rad). […]

CKAP4/p63 [3] = target: T1, CKAP4/p63; experiment: Sensitivity of siRNA-electroporated normal bladder epithelial cells to APF (thymidine incorporation); assay type: cell-based; conditions: electroporation with siRNA, FIG. 5B
Procedure: as §1, with “plate. Double stranded siRNA corresponding to nucleotides 594-616 ([NT] sense strand; SEQ ID NO:5) of CKAP4/p63 (NM-006825) and a scrambled double stranded negative control siRNA ([NT] sense strand; SEQ ID NO:13) were prepared by preincubating single-stranded sense and anti-sense strands prepared with double A overhangs in serum-free MEM medium at 37° C. for 1 hour. […]” for “plate.”

[4] = test system: normal human bladder epithelial cells; conditions: bladder epithelial cell proliferation; background statement; cited from earlier work
[5] = target: T2, cytoskeleton-associated protein 4/p63 …; experiment: cell-based or functional assay

Molecule	CKAP4/p63 protein expression relative to beta actin (CKAP4/p63 [2])	decrease in sensitivity of the cells to APF (CKAP4/p63 [3])	further results
rhodamine-labeled APF: synthetic APF glycopeptide with C-terminal lysine labelled with 5(6)-Rhodamine B isothiocyanate (TVPAAVVVAK)			antiproliferative activity relative to synthetic, unlabeled APF ([1]; normal bladder epithelial cells): approximately 85%
5′-AAUUCUGUAUGCUA CCUGUAGAA-3′ sense strand [scrambled siRNA, reference compound]	little or no change	no decrease in sensitivity to APF	
sialoglycopeptide inhibitor of bladder epithelial cell proliferation; nonapeptide TVPAAVVVA (SEQ ID NO:1) glycosylated on N-terminal threonine [APF, Sialic acid-galactose-N-acetylgalactosamine-threonine-valine-proline-alanine-alanine-valine-valine-valine-alanine]			potency of APF (EC50) [4]: picomolar range
biotinylated synthetic APF: APF biotinylated on the C-terminal lysine residue, carrying Galβ1-3GalNAcα-O-threonine (TVPAAVVVAK)			antiproliferative activity as compared to the parent synthetic GalNAcβ1-3Gal-APF congener ([1]; primary normal bladder epithelial cells): approximately 80%
5′-AACUUUUGAGUCCAUCUUGAGAA-3′ sense strand [double-stranded siRNA for CKAP4/p63]	decreased protein expression of CKAP4/p63 relative to beta actin	approximately one thousand-fold	
B1			sensitivity of the cells to APF after siRNA knockdown of CKAP4/p63 (3H-thymidine incorporation) [5]: ~1000 fold
